The values that follow come from patent US6482849B1, “Inhibitors of α4β1 mediated cell adhesion” (Tanabe Seiyaku Co., Ltd., priority 1997, dated 2002).

The target in series [1] is T1, α4β1 integrin (Jurkat T-cell adhesion to IL-1 stimulated endothelial cell monolayers) (Homo sapiens, UniProt P05556+P13612).
T1 construct: a T-cell line, Jurkat, known to express the α4β1 integrin; host or cells: Jurkat T-cell line
The series is described as follows: Jurkat-Endothelial Cell Adhesion Assay (Jurkat EC). Type of series: cell-based. Conditions: Jurkat cells on IL-1 stimulated HUVEC monolayers. Here is the method:
The following assay established the activity of the present compounds in inhibiting β1-mediated cell adhesion in a representative in vitro system. This assay measures the adhesive interactions of a T-cell line, Jurkat, known to express the α4β1 integrin, to endothelial monolayers in the presence of test compounds. The test compounds were added in increasing concentrations to T-cells and then the T-cell compound mixture was added to IL-1 stimulated endothelial cell monolayers. The plates were incubated, washed and the percentage of attached cells was quantitated. […] Human umbilical vein endothelial cells were purchased from Clonetics (San Diego, Calif.) at passage number 2. The cells were grown on 0.5% porcine skin gelatin pre-coated flasks (Sigma, St. Louis Mo.) in EGM-UV media (Clonetics, San Diego, Calif.) supplemented with 10% fetal bovine serum. Cells are refed every 2-3 days reaching confluence by day 4 to 6. […] The endothelial cells are not used following passage 6. Am The T-cell line Jurkat was obtained from American Type Tissue Culture Collection (Rockville, Md.) and the cells were cultured in RPMI containing 10% fetal calf serum. The cells were washed twice in Hank's Balanced Salt Solution (HBSS) and resuspended in Dulbecco's […] Eagle's Media (DMEM) containing 2.5 mg/ml Human Serum Albumin (HSA). Jurkat cells (1×10^6 cells/ml) were stained with 10 ng/ml BCECF-AM z z (Molecular Probes, Eugene, Ore.)) in HBSS without phenol red. The cells were loaded with BCECF for 60 minutes in the dark at 37° C., washed 2 times, and resusupended in DMEM-HSA solution.
Confluent endothelial monolayers, grown in 96-well tissue culture plates, were stimulated for 4 hr. at 37° C. with 0.1 ng/ml (˜50 U/ml) recombinant IL-1 (Amgen, Thousand Oaks, Calif.). Following this incubation, the monolayers were washed twice with HBSS and 0.1 ml of DMEM-HSA solution was added. Jurkat cells (5×10^5 cells) were combined with the appropriate concentration of the test compound and 0.1 ml of the Jurkat cell-compound mixture was added to the endothelial cell monolayers. Generally, 100, 20, 5 and 1.25 μM compound concentrations were tested. […] The plates were placed on ice for 5 minutes to allow for Jurkat cell settling and the plates were incubated at 37° C. for 20 minutes. Following this incubation, the monolayers were washed twice with PBS containing 1 mM calcium chloride and 1 mM magnesium chloride and the plates were read using a Millipore Cytofluor 2300 (Marlboro, Mass.). Fluorescence in each well was measured as Arbitrary Fluorescence Units and percent adhesion in the absence of compound was adjusted to 100% and the % adhesion in the presence of compound was calculated. Monolayers were also fixed in 3% paraformaldehyde and evaluated microscopically to verify the adhesion. This procedure is a modification of a previously published method (Cardarelli et al., J. Biol. Chem. 269:18668-18673 (1994)).

For series [2], the target named is T2, α4β1 integrin (Jurkat cell adhesion to immobilized CS-1 derived peptide CLHPGEILDVPST) (Homo sapiens, UniProt P05556+P13612).
T2 construct: 100 μl of Jurkat cells (2.5×10^6 cells/ml) in DMEM plus BSA; endogenous in cells; host or cells: Jurkat T-cell line
Nature of the series: Jurkat-CS-1 Assay. In kind it is cell-based. Conditions: Jurkat cells on CS-1 peptide coated plates. Here is the method:
The CS-1 derived peptide, CLHPGEILDVPST, and the scrambled control peptide, CLHGPIELVSDPT, were synthesized on a Beckman 990 synthesizer using t-Boc methodology. The peptides were immobilized onto microtiter plates using the heterobifunctional crosslinker 3-(2-pyridyldithio)propionic acid N-hydroxysuccinimide ester (SPDP) as reported by Pierschbacher et al., Proc. Natl. Acad. USA, 80:1224-1227 (1983). Microtiter plates were coated with 20 μg/ml HSA for 2 hr. at room temperature, washed once with PBS and derivatized with 10 μg/ml SPDP for 1 hr. After washing, 100 μl of a 100 μg/ml cysteine containing peptide solution which had been recently dissolved was added to the wells and allowed to crosslink to the plates overnight at 4° C. Unbound peptide was removed from plates by washing with PBS. To block non-reacted sites, the plates are coated with 100 μl of a 2.5 mg/ml BSA solution in PBS for 1 hr. at 37° C. 100 μl of Jurkat cells (2.5×10^6 cells/ml) in DMEM plus BSA (2.5 mg/ml) was mixed with an appropriate concentration of the compound to be tested and the mixture was added to peptide coated dishes and incubated for 1 hr. at 37° C. Generally 100, 20, 5 and 1.25 μM concentrations of the compound were tested.
Following this incubation the plates were washed once with PBS and the attached cells were fixed with 3% paraformaldehyde in PBS and stained with 0.5% toluidine blue in 3.7% formaldehyde. The cells were stained overnight at room temperature and the optical density at 590 nm of toluidine blue stained cells was determined using a vertical pathway spectrophotometer to quantitate attachment (VMAX Kinetic Microplate Reader, Molecular Devices, Menlo Park, Calif.). This procedure is a modification of a previously published method (Cardarelli et al, J. Biol. Chem., 269:18668-18673 (1994) and Cardarelli et al, Proc. Natl. Acad. Sci. USA, 83:2647-2651 (1986)).

As a reminder, the melting point is the temperature of the solid-liquid transition. As a reminder, the IC50 is the midpoint of a concentration-inhibition curve.

The structures appear in SMILES notation. Counter-ions that a name gives are not always drawn.

T1 sequence (P13612 34-1032): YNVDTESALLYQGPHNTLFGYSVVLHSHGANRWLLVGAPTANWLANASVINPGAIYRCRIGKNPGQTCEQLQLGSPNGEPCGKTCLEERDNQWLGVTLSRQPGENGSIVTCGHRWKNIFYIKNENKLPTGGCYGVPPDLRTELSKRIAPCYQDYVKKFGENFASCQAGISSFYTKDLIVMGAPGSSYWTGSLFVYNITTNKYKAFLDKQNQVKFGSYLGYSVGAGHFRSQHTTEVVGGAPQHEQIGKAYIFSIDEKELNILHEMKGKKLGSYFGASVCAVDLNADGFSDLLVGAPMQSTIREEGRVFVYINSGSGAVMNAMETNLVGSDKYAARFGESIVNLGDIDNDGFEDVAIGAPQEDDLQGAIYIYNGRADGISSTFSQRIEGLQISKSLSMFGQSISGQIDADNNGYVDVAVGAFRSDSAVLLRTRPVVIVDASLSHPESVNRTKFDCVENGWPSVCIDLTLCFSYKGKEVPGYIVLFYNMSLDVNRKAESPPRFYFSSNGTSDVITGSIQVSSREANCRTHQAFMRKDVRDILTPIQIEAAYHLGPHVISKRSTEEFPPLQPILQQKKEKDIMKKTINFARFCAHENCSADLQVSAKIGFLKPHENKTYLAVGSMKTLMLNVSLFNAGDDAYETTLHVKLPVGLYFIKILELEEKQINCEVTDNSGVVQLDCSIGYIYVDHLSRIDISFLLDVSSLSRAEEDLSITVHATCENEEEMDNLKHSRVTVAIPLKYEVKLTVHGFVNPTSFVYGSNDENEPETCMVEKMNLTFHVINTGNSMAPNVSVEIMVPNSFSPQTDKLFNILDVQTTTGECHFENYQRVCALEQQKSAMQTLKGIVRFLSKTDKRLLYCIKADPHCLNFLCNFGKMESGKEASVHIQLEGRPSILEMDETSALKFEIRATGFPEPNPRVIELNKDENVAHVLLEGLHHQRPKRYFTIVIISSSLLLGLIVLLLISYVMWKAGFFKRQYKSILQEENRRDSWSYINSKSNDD
T1 sequence (P05556 21-798): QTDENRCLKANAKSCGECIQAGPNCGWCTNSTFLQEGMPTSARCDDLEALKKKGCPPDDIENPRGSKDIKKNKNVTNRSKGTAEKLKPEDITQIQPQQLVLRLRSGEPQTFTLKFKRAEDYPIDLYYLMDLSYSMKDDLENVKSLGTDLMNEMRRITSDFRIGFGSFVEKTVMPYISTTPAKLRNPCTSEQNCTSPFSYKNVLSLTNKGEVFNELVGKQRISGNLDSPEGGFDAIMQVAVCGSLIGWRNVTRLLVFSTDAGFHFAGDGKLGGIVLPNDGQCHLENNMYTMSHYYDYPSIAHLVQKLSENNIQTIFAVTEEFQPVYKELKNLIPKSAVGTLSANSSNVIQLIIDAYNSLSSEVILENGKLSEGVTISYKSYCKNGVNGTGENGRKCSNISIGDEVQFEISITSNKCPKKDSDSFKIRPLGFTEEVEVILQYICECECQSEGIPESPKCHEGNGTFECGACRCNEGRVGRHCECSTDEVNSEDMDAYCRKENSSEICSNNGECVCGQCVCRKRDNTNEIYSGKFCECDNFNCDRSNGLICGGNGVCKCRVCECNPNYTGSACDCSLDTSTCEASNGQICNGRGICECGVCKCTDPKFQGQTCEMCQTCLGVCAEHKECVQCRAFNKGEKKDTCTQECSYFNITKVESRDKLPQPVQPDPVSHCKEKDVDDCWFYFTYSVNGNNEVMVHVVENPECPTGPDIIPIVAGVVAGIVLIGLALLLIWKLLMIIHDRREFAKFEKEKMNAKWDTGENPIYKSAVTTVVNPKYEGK
T2 sequence (P13612 34-1032): as the sequence (P13612 34-1032) above
T2 sequence (P05556 21-798): as the sequence (P05556 21-798) above

Consider `CC1(C)[C@@H](C(=O)O)CC[C@@]1(C)C(=O)N[C@H](CC(=O)O)Cc1ccc(OCc2c(Cl)cccc2Cl)cc1` (relative stereo) [Example 204, [1R-[1α(S*),3α]]-β-[[(3-Carboxy-1,2,2-trimethylcyclopentyl)carbonyl]amino]-4-[(2,6-dichlorophenyl)methoxy]-benzenebutanoic acid], for which the melting point lay within 106 to 108 °C.
As for `CC1(C)[C@@H](C(=O)N[C@@H](Cc2ccc(OCc3c(Cl)cccc3Cl)c(O)c2)C(=O)O)CC[C@@]1(C)C(=O)O` [Example 65], the IC50 in series [1] is no more than 800 nM; in series [2] it was 80 to 500 nM.
On the same counts, the results for `COC(=O)[C@H](Cc1ccc(NC(=O)c2c(Cl)cc(Cl)cc2Cl)cc1)NC(=O)[C@H]1CC[C@@](C)(C(=O)O)C1(C)C` [Example 92] are no more than 800 nM and no more than 80 nM.
With `CC1(C)[C@@H](C(=O)N[C@@H](Cc2ccc(NC(=O)c3ccccc3[N+](=O)[O-])cc2)C(=O)O)CC[C@@]1(C)C(=O)O` [Example 102], the values for the IC50 in series [1] and in series [2] were no more than 800 nM and no more than 80 nM, respectively.
On the same counts, the results for `COC(=O)[C@H](Cc1ccc(NC(=O)c2cc(C(F)(F)F)ccc2C(F)(F)F)cc1)NC(=O)[C@H]1CC[C@@](C)(C(=O)O)C1(C)C` [Example 103] are no more than 800 nM and no more than 80 nM.
On the same counts, the results for `CC1(C)[C@@H](C(=O)N[C@@H](Cc2ccc(C(=O)Nc3c(Cl)cccc3Cl)cc2)C(=O)O)CC[C@@]1(C)C(=O)O` [Example 153] are 800 to 5000 nM and 80 to 500 nM.
Turning to `CC1(C)[C@@H](C(=O)N[C@@H](Cc2ccc(NC(=O)c3c(Cl)cccc3Cl)cc2)C(=O)O)CC[C@@]1(C)/C=C/C(=O)O` [Example 182, [1S-[1α,3α(E)]]-N-[[3-(2-Carboxyethenyl)-2,2,3-trimethylcyclopentyl]carbonyl]-4-[(2,6-dichlorobenzoyl)amino]-L-phenylalanine disodium salt], the IC50 in series [1] is no more than 800 nM; in series [2] it was no more than 80 nM.
For the molecule `CC1(C)[C@@H](C(=O)O)CC[C@@]1(C)C(=O)N[C@@H](Cc1ccc(OCc2c(Cl)cccc2Cl)cc1)C(=O)O` [Example 186, (1R-cis)-N-[(3-Carboxy-1,2,2-trimethylcyclopentyl)carbonyl]-O-[(2,6-dichlorophenyl)methyl]-L-tyrosine], the IC50 in series [1] fell in the range of 800 to 5000 nM; in series [2], 80 to 500 nM.
As to `CC1(C)[C@@H](C(=O)N[C@@H](Cc2ccc(OCc3c(Cl)cccc3Cl)cc2)C(=O)O)CC[C@@]1(C)C(=O)NCC(N)=O` [Example 187, (1S-cis)-N-[[3-[[(2-amino-2-oxoethyl)-amino]carbonyl]-2,2,3-trimethylcyclopentyl]carbonyl]-O-[(2,6-dichlorophenyl)methyl]-L-tyrosine], the IC50 was in the range of 800 to 5000 nM in series [1] and 80 to 500 nM in series [2].
In the case of `CC1(C)[C@@H](C(=O)N[C@@H](Cc2ccc(NC(=O)c3c(Cl)cccc3Cl)cc2)C(=O)O)CC[C@@]1(C)C(=O)NCCC(=O)O` [Example 214], the IC50 in series [1] was no more than 800 nM; in series [2], no more than 80 nM.
As for `CC1(C)[C@@H](C(=O)N[C@@H](Cc2ccc(NC(=O)c3c(Cl)cccc3Cl)cc2)C(=O)O)CC[C@@]1(C)C(=O)NCCC#N` [Example 216, (1S-cis)-N-[[3-[[(2-Cyanoethyl)amino]carbonyl]-2,2,3-trimethylcyclopentyl]carbonyl]-4-[(2,6-dichlorobenzoyl)amino]-L-phenylalanine], the half-maximal inhibitory concentration (IC50) is no more than 800 nM in series [1] and no more than 80 nM in series [2].
`CC1(C)[C@@H](C(=O)N[C@@H](Cc2ccc(NC(=O)c3c(Cl)cccc3Cl)cc2)C(=O)O)CC[C@@]1(C)C(=O)NO` [Example 219, (1S-cis)-4-[(2,6-Dichlorobenzoyl)amino]-N-[[3-[(hydroxyamino)carbonyl]-2,2,3-trimethyl-cyclopentyl]carbonyl]-L-phenylalanine]: the IC50 in series [1] was no more than 800 nM; in series [2], no more than 80 nM.
On the same counts, the results for `CC1(C)[C@@H](C(=O)N[C@@H](Cc2ccc(C(=O)Nc3ccc(-c4ccccc4)cc3)cc2)C(=O)O)CC[C@@]1(C)C(=O)O` [Example 220] are 800 to 5000 nM and 80 to 500 nM.
As for `CC1(C)[C@@H](C(=O)N[C@@H](Cc2ccc(C(=O)Nc3ccc(Cl)cc3)cc2)C(=O)O)CC[C@@]1(C)C(=O)O` [Example 221], the IC50 fell in the range of 5000 to 10000 nM in series [1] and 500 to 1000 nM in series [2].
On the same counts, the results for `CC1(C)[C@@H](C(=O)N[C@@H](Cc2ccc(C(=O)Nc3ccccc3C(F)(F)F)cc2)C(=O)O)CC[C@@]1(C)C(=O)O` [Example 222] are no more than 800 nM and 80 to 500 nM.
On the same counts, the results for `CC1(C)[C@@H](C(=O)N[C@@H](Cc2ccc(C(=O)Nc3c(Cl)cc(Cl)cc3Cl)cc2)C(=O)O)CC[C@@]1(C)C(=O)O` [Example 223] are no more than 800 nM and no more than 80 nM.
Regarding `CC1(C)[C@@H](C(=O)N[C@@H](Cc2ccc(NC(=O)c3c(Cl)cccc3Cl)cc2)C(=O)O)CC[C@@]1(C)C(=O)N1CCOCC1` [Example 225, (1S-cis)-4-[(2,6-Dichlorobenzoyl)amino]-N-[[2,2,3-trimethyl-3-[(4-morpholinyl)carbonyl]-cyclopentyl]carbonyl]-L-phenylalanine], the IC50 in series [1] was no more than 800 nM; in series [2], no more than 80 nM.
In the case of `COC(=O)[C@H](Cc1ccc(NC(=O)c2cc(C(F)(F)F)ccc2Cl)cc1)NC(=O)[C@H]1CC[C@@](C)(C(=O)O)C1(C)C` [Example 231, (1S-cis)-N-[(3-Carboxy-2,2,3-trimethyl-cyclopentyl)carbonyl]-4-[(2-chloro-5-trifluoromethylbenzoyl)amino]-L-phenylalanine methyl ester], the values for the IC50 in series [1] and in series [2] were no more than 800 nM and 500 to 1000 nM, respectively.
For `CC1(C)[C@@H](C(=O)N[C@@H](Cc2ccc(NC(=O)c3cc(C(F)(F)F)ccc3Cl)cc2)C(=O)O)CC[C@@]1(C)C(=O)O` [Example 232, (1S-cis)-N-[(3-Carboxy-2,2,3-trimethyl-cyclopentyl)carbonyl]-4-[(2-chloro-5-trifluoromethylbenzoyl)amino]-L-phenylalanine], the IC50 in series [1] is no more than 800 nM; in series [2] it was no more than 80 nM.
With `CC(C)(C)c1ccc(C(=O)Nc2ccc(C[C@H](NC(=O)[C@H]3CC[C@@](C)(C(=O)O)C3(C)C)C(=O)O)cc2)c(Cl)c1` [Example 253, (1S-cis)-N-[(3-Carboxy-2,2,3-trimethylcyclopentyl)carbonyl]-4-[[2-chloro-4-[(1,1-dimethyl)ethyl]benzoyl]amino]-L-phenylalanine], the IC50 was in the range of 800 to 5000 nM in series [1] and 80 to 500 nM in series [2].
